Measurements taken from ChEMBL document CHEMBL1151945 (J Med Chem, 2009).

Assays:
[1] = target: T1, Bifunctional dihydrofolate reductase-thymidylate synthase (Toxoplasma gondii, UniProt Q07422)
T1 sequence (Q07422 whole entry): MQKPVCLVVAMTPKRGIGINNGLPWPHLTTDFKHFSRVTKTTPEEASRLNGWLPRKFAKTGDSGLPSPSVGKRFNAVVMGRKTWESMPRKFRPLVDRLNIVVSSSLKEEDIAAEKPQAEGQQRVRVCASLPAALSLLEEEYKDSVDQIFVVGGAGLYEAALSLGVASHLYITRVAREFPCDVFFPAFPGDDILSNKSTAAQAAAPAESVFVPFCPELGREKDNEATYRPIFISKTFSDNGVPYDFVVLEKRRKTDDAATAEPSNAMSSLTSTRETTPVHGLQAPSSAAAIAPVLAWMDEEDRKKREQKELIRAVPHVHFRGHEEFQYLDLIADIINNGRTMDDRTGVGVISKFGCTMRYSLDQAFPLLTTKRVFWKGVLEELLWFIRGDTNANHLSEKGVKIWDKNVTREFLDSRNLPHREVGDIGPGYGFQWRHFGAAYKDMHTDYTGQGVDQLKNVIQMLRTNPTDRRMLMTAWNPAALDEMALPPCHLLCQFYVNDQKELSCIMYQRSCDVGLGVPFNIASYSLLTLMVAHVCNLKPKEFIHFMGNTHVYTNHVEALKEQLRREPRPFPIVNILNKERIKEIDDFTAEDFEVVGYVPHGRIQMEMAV

Thymidylate synthase [2] = target: Thymidylate synthase (Escherichia coli, UniProt C3SWJ7)
[3] = target: T1, Bifunctional dihydrofolate reductase-thymidylate synthase; remark: listed apart in the source
Dihydrofolate reductase = target: T2, Dihydrofolate reductase (Homo sapiens, UniProt P00374)
T2 sequence (P00374 whole entry): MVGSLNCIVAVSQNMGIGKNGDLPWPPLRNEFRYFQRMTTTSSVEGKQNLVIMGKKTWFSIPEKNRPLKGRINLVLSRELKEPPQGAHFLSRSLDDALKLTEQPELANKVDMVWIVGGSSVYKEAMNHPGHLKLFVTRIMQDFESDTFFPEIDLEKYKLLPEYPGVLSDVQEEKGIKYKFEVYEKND

Thymidylate synthase [4] = target: Thymidylate synthase (Homo sapiens, UniProt P04818)
CCRF-CEM = assay: cells; settings: Homo sapiens
HCT-116 = assay: cells; settings: Homo sapiens
cells [5] = settings: Homo sapiens, NCI-H525
NCI-H460 = assay: cells; settings: Homo sapiens
MOLT-4 = assay: cells; settings: Homo sapiens
LOX IMVI = assay: cells; settings: Homo sapiens
NCI-H23 = assay: cells; settings: Homo sapiens
OVCAR-8 = assay: cells; settings: Homo sapiens
HCC 2998 = assay: cells; settings: Homo sapiens
cells [6] = settings: Homo sapiens, 786-0
M14 = assay: cells; settings: Homo sapiens
SN12C = assay: cells; settings: Homo sapiens
[7] = target: T3, Dihydrofolate reductase (Escherichia coli) (UniProt P0ABQ4); assay: Inhibition of Escherichia coli dihydrofolate reductase at […]
T3 sequence (whole entry): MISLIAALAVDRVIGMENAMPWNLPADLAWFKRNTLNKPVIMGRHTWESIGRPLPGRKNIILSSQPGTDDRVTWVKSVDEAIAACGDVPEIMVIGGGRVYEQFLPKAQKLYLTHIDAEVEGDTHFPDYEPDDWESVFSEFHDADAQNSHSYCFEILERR

HL-60(TB) = assay: cells; settings: Homo sapiens
[8] = target: T3, Dihydrofolate reductase (Escherichia coli); assay: Inhibition of Escherichia coli dihydrofolate reductase at 27 uM
[9] = target: T3, Dihydrofolate reductase (Escherichia coli); assay: Inhibition of Escherichia coli dihydrofolate reductase at 31 uM
[10] = target: T3, Dihydrofolate reductase (Escherichia coli); assay: Inhibition of Escherichia coli dihydrofolate reductase at 3 uM
[11] = target: Thymidylate synthase (Escherichia coli) (UniProt C3SWJ7); assay: Inhibition of Escherichia coli thymidylate synthase at 23 uM
[12] = target: T3, Dihydrofolate reductase (Escherichia coli); assay: Inhibition of Escherichia coli dihydrofolate reductase at 28 uM
[13] = target: T4, Bifunctional dihydrofolate reductase-thymidylate synthase (Toxoplasma gondii) (UniProt Q07422); settings: 23 uM
T4 sequence (whole entry): T1 sequence (Q07422 whole entry)

Thymidylate synthase (Homo sapiens, UniProt P04818), sequence (P04818 whole entry): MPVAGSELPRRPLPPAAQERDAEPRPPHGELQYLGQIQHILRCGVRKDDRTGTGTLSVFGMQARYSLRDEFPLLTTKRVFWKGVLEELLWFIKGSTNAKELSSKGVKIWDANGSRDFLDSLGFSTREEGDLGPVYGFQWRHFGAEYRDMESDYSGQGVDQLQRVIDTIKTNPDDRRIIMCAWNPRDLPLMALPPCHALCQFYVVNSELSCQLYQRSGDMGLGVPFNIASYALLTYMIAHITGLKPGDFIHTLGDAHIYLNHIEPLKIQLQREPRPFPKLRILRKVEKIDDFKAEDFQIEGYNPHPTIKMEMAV
Thymidylate synthase (Escherichia coli, UniProt C3SWJ7), sequence (C3SWJ7 whole entry): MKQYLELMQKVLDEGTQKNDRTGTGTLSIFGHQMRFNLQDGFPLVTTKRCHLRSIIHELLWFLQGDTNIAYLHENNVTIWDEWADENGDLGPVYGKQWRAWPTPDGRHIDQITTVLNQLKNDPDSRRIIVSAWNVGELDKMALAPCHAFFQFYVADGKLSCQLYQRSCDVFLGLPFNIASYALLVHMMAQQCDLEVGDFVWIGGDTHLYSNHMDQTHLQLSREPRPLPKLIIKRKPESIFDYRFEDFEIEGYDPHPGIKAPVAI
Thymidylate synthase (Escherichia coli), sequence (C3SWJ7 1-264): as the sequence (C3SWJ7 whole entry) above

SMILES | IC50 [1] | IC50 (Thymidylate synthase [2]) | IC50 [3] | IC50 (Dihydrofolate reductase) | IC50 (Thymidylate synthase [4]) | further results
CCc1sc2nc(N)[nH]c(=O)c2c1Sc1ccncc1 | 1700 nM | 2000 nM | 17 nM | 350 nM |  | 
CCc1sc2nc(N)[nH]c(=O)c2c1Sc1ccc(Cl)cc1 |  | 2500 nM |  | 300 nM | 750 nM | 
Cc1sc2nc(N)[nH]c(=O)c2c1Sc1ccc(C(=O)N[C@@H](CCC(=O)O)C(=O)O)cc1 |  |  |  |  |  | GI50 (CCRF-CEM): 94.5 µM; GI50 (HCT-116): > 100000 nM; GI50 (cells [5]): > 100 µM; GI50 (NCI-H460): 41.2 µM; GI50 (MOLT-4): > 100 µM; GI50 (LOX IMVI): 65.6 µM; GI50 (NCI-H23): > 100 µM; GI50 (OVCAR-8): > 100000 nM; GI50 (HCC 2998): > 100000 nM; GI50 (cells [6]): > 100000 nM; GI50 (M14): > 100 µM; GI50 (SN12C): > 100 µM
CCc1sc2nc(N)[nH]c(=O)c2c1Sc1ccc(Cl)c(Cl)c1 | 1000 nM | 2300 nM | 8.1 nM | 290 nM | 230 nM | 
CCc1sc2nc(N)[nH]c(=O)c2c1Sc1ccc([N+](=O)[O-])cc1 | 1000 nM | 1700 nM | 8.7 nM | 260 nM | 220 nM | 
CCc1sc2nc(N)[nH]c(=O)c2c1Sc1ccccc1Cl | 2500 nM | 2000 nM | 27 nM | 600 nM | 1100 nM | 
CCc1sc2nc(N)[nH]c(=O)c2c1Sc1cc(Cl)cc(Cl)c1 | 1600 nM | 1200 nM | 14 nM | 280 nM | 690 nM | inhibition [7]: 0%
CCc1sc2nc(N)[nH]c(=O)c2c1Sc1ccc(C(=O)N[C@@H](CCC(=O)O)C(=O)O)cc1 | 90 nM | 18 nM | 2.1 nM | 19 nM | 54 nM | GI50 (CCRF-CEM): 0.853 µM; GI50 (HCT-116): 284 nM; GI50 (cells [5]): 7.8 µM; GI50 (NCI-H460): 0.959 µM; GI50 (MOLT-4): 4.78 µM; GI50 (LOX IMVI): 0.0909 µM; GI50 (NCI-H23): 9.4 µM; GI50 (HL-60(TB)): 497 nM; GI50 (OVCAR-8): 579 nM; GI50 (HCC 2998): 965 nM; GI50 (cells [6]): 817 nM; GI50 (M14): 4.32 µM; GI50 (SN12C): 3.31 µM
CCc1sc2nc(N)[nH]c(=O)c2c1Sc1cc(OC)cc(OC)c1 | 2300 nM | 1800 nM | 24 nM | 540 nM | 1200 nM | inhibition [8]: 0%
CCc1sc2nc(N)[nH]c(=O)c2c1Sc1ccc(F)cc1 | 2600 nM | 2900 nM | 25 nM | 620 nM | 1300 nM | inhibition [9]: 15%
CCc1sc2nc(N)[nH]c(=O)c2c1Sc1ccc2ccccc2c1 | 1100 nM | 1400 nM | 8.4 nM | 2200 nM | 2300 nM | 
CCc1sc2nc(N)[nH]c(=O)c2c1Sc1cccc(Cl)c1 | 1800 nM | 2300 nM | 12 nM | 300 nM | 380 nM | inhibition [10]: 0%
CCc1sc2nc(N)[nH]c(=O)c2c1Sc1ccc(Br)cc1 | 2200 nM | 2200 nM | 13 nM | 260 nM | 390 nM | 
CCc1sc2nc(N)[nH]c(=O)c2c1Sc1cc(OC)ccc1OC |  | > 23000 nM | 14 nM | 840 nM | 4600 nM | inhibition [11]: 11%; inhibition [12]: 0%; inhibition [13]: 29%
CCc1sc2nc(N)[nH]c(=O)c2c1Sc1ccccc1 | 8400 nM | 28000 nM | 33 nM | 2600 nM | 5600 nM | 
